Assay: xn = mol fraction of the nth substance listed
Details: 100 kPa

## CCCC[N+](CCCC)(CCCC)CCCC.[Cl-] + Oc1ccccc1
293.15 K, x1 = 0.1667
  electrical conductivity: 0.0802 S/m
293.15 K, x1 = 0.167
  viscosity: 91.3 mPa·s
303.15 K, x1 = 0.1667
  electrical conductivity: 0.117 S/m
303.15 K, x1 = 0.167
  viscosity: 66.4 mPa·s
313.15 K, x1 = 0.1667
  electrical conductivity: 0.167 S/m
313.15 K, x1 = 0.167
  viscosity: 49.2 mPa·s
323.15 K, x1 = 0.1667
  electrical conductivity: 0.232 S/m
333.15 K, x1 = 0.1667
  electrical conductivity: 0.317 S/m
333.15 K, x1 = 0.167
  viscosity: 28.6 mPa·s

## CC[N+](CC)(CC)CC.[Cl-] + OCCOCCOCCO
293.15 K, x1 = 0.1667
  electrical conductivity: 0.16 S/m
  viscosity: 80 mPa·s
293.15 K, x1 = 0.25
  electrical conductivity: 0.194 S/m
  viscosity: 117 mPa·s
303.15 K, x1 = 0.1667
  electrical conductivity: 0.226 S/m
  viscosity: 55.9 mPa·s
303.15 K, x1 = 0.25
  electrical conductivity: 0.276 S/m
  viscosity: 77 mPa·s
313.15 K, x1 = 0.1667
  electrical conductivity: 0.313 S/m
  viscosity: 40 mPa·s
313.15 K, x1 = 0.25
  electrical conductivity: 0.384 S/m
  viscosity: 52.1 mPa·s
323.15 K, x1 = 0.1667
  electrical conductivity: 0.424 S/m
  viscosity: 29.2 mPa·s
323.15 K, x1 = 0.25
  electrical conductivity: 0.524 S/m
  viscosity: 36.1 mPa·s
333.15 K, x1 = 0.1667
  electrical conductivity: 0.564 S/m
  viscosity: 21.7 mPa·s
333.15 K, x1 = 0.25
  electrical conductivity: 0.702 S/m
  viscosity: 25.6 mPa·s

Reference: a compilation of properties of binary mixtures (doi:10.1016/j.molliq.2021.118139)
